The source of these data is patent US20080255236A1, “Methods and Composition Comprising 2-[(3-Chlorophenyl)Amino] Phenylacetic Acid for Alzheimer's Disease” (Glycadia, Inc., priority 2007, published 2008).

Series [1] is described as follows: Bioavailability of 23CPPA in male rats (oral vs intravenous). The series is classed as in vivo. The settings on record: rat, single dose oral 30 mg/kg vs intravenous 3.0 mg/kg, plasma LC-MS-MS. As to the method: Male rats were given a single dose of 23CPPA by the oral route (30 mg/kg) or by the intravenous route (3.0 mg/kg). Timed samples of blood were collected before and after dosing, and plasma concentrations of the compound were determined with LC-MS-MS analysis.

Series [2] in a line: Plasma levels of 23CPPA following oral administration in rats. The series is classed as in vivo, rat. The note with it: for AUC(0-t) / half-life: plasma, rat; for AUC(0-t) / Cmax / half-life: po; for AUC(0-t): read-out: AUC0-24; for Cmax: read-out: maximal concentration (Cmax). As to the method: Concentrations of compound in rat plasma were measured at timed intervals after administration by gavage of 25 and 75 mg per kilogram of body weight of the sodium salt of 23CPPA. […] Plasma concentrations of the compound readily declined after reaching maximal concentration and the elimination half-life (T^1/2) was about 2 hours. The extent of systemic exposure of animals to 23CPPA, characterized by the area under the curve from 0 to 24 hours after administration (AUC0-24), increased with increasing dosage, was approximately dose proportional, and encompassed levels representing therapeutic ranges.

Series [3] is described as follows: Brain and plasma levels of 23CPPA following oral administration in rats (HPLC/MS/MS). The note with it: rat; for concentration at 1 h: 1 hour after dose; for concentration at 4 h: 4 hours after dose; for concentration at 6 h: 6 hours after dose. In kind it is in vivo. As to the method:
Rat hemi brains were obtained 1, 4 and 6 hours after administration by gavage of the sodium salt of 23CPPA at doses of 15 and 60 mg/kg and were mixed with two equivalents of water and homogenized. The resulting homogenate was extracted into acetonitrile containing internal standard and concentrations of the compound were analyzed by high pressure liquid chromatography/two stage mass spectrometry (HPLC/MS/MS). Plasma samples also were collected from the same rats at these time points for measurement of plasma concentrations of the compound.

Series [4] is described as follows: Plasma levels of 23CPPA after oral administration to humans. In kind it is in vivo, human. The note with it: for AUC(0-t): read-out: AUC0-24. As to the method:
Plasma concentrations were measured at timed intervals after oral administration of a single dose of 50 to 1000 mg of the sodium salt of 23CPPA. […] The extent of systemic exposure of subjects to 23CPPA, characterized by the area under the curve from 0 to 24 hours after administration (AUC0-24), increased with increasing dosage from 50 to 1000 mg and was approximately dose proportional. The human pharmacokinetic findings closely resemble those in rats according to the human equivalent dose as shown in Example 2.

Series [5] concerns Mammalian cell cultures expressing human Amyloid Protein Precursor (APP). The series is described as follows: Production of Aβ40 and Aβ42 peptides in culture supernatants, enzyme-linked immunoassay. The note with it: sodium salt at 10, 50 and 100 micromolar, vs DMSO control. The series is classed as cell-based. As to the method:
FIG. 1 is a chart diagram representing an exemplary embodiment of 23CPPA lowering production of amyloidogenic Aβ42 peptide. Mammalian cell cultures expressing human Amyloid Protein Precursor (APP) were treated with the sodium salt of 23CPPA at concentrations of 10, 50 and 100 micromolar. The culture supernatants were analyzed by enzyme-linked immunoassay for the Aβ40 and Aβ42 peptides. Results were compared to control values obtained from cells treated with DMSO. […] Mammalian cell cultures expressing human Amyloid Protein Precursor (APP) were treated with the sodium salt of 23CPPA at concentrations of 10, 50 and 100 micromolar. The culture supernatants were analyzed by enzyme-linked immunoassay for the Aβ40 and Aβ42 peptides. Results were compared to control values obtained from cells treated with DMSO.

For a further series, the system named is human hepatocytes. Briefly: Metabolic conversion after incubation with human hepatocytes (mass spectrometry). The series is classed as in vitro ADME. As to the method: After incubation of 23CPPA with human hepatocytes, samples were analyzed using mass spectrometry to establish metabolic conversion of the compound.
For another series, the target named is COX1 (Homo sapiens, UniProt P23219). The note with it: background statement, no test described; cited from earlier work.
Sequence of COX1 (P23219 24-599): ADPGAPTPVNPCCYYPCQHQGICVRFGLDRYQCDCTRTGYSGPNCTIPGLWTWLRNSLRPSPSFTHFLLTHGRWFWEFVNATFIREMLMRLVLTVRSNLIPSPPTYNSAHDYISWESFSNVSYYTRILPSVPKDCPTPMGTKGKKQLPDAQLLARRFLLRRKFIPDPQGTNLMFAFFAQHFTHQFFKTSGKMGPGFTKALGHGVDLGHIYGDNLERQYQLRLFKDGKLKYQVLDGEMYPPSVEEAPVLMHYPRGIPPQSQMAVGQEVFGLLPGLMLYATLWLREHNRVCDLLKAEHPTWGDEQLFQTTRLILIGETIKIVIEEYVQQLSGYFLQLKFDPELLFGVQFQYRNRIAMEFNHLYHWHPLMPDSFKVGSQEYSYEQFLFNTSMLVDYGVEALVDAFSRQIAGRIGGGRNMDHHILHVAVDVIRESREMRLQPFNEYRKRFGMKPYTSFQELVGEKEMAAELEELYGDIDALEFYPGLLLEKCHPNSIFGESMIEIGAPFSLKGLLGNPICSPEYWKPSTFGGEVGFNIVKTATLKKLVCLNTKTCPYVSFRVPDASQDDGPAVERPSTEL
In another series the target is T1, COX2 (Homo sapiens, UniProt P35354).
T1 sequence (P35354 18-604): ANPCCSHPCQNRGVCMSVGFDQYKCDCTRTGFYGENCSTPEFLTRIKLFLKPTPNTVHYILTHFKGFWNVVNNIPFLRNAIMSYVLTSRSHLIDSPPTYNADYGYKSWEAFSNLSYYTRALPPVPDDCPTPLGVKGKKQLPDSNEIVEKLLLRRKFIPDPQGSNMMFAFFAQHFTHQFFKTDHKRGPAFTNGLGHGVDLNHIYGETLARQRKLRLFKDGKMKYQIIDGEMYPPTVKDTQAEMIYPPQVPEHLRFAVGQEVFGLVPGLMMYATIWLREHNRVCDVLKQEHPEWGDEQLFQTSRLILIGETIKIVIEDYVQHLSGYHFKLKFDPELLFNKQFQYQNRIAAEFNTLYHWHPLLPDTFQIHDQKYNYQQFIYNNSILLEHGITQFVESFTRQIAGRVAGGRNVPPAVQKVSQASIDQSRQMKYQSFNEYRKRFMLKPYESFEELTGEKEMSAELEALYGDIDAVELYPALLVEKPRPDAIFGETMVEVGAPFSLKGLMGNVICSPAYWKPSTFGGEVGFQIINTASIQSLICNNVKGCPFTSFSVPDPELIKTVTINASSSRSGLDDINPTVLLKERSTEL
The note with it: background statement, no test described; cited from earlier work.

Another series deals with diabetic rodents. The note with it: chronic administration, cited from earlier work.
The conditions of series [6]: cited from earlier work.
[7] abbreviates: blood, gavage 15 mg/kg sodium salt, read-out: Blood concentration.
Where [8] appears, read: blood, gavage 60 mg/kg sodium salt, read-out: Blood concentration.
The mark [9] stands for this setting: brain, gavage 15 mg/kg sodium salt, read-out: Brain concentration.
[10] abbreviates: brain, gavage 60 mg/kg sodium salt, read-out: Brain concentration.

Where two headings read alike, the source gives them in different places.

Take `O=C(O)Cc1ccccc1Nc1cccc(Cl)c1` [23CPPA, 2-[(3-chlorophenyl)amino]phenylacetic acid]: the bioavailability (in general, the share of a dose that reaches the circulation, judged against a reference dose that is usually intravenous) in series [1] worked out at 85%. Also, the AUC(0-t) came out at 26600 ng·h/mL in [2] (gavage 25 mg/kg body wt. sodium salt); 94000 ng·h/mL in series [2] (gavage 75 mg/kg body wt. sodium salt); 4480 ng·h/mL in series [4] (plasma, human, single oral dose 50 mg (0.7 mg/kg body wt)); 11000 ng·h/mL in [4] (plasma, human, single oral dose 100 mg (1.3 mg/kg body wt)); 27300 ng·h/mL in [4] (plasma, human, single oral dose 250 mg (3.0 mg/kg body wt)); 54000 ng·h/mL in series [4] (plasma, human, single oral dose 500 mg (6.0 mg/kg body wt)). The AUC(0-t) in series [4] (plasma, human, single oral dose 750 mg (9.0 mg/kg body wt)) was determined as 66600 ng·h/mL; in [4] (plasma, human, single oral dose 1000 mg (12.3 mg/kg body wt)) it was 100000 ng·h/mL. Besides, the Cmax in series [2] (rat plasma, gavage 25 mg/kg sodium salt) was 9500 ng/mL; in series [2] (rat plasma, gavage 75 mg/kg sodium salt), 25000 ng/mL; in series [4] (human plasma, single oral dose of 50 to 1000 mg sodium salt, read-out: maximal concentrations (Cmax)), 200 to 15600 ng/mL. In series [2] (rat plasma, gavage 25 and 75 mg/kg sodium salt), the “Time of maximal concentration (Tmax)” value is on record as “within one hour”. For the same compound, the half-life in [2] (25 mg/kg, gavage 25 mg/kg body wt. sodium salt, read-out: T1/2 (converted)) is 2.45 h; in series [2] (75 mg/kg, rat plasma, gavage 25 and 75 mg/kg sodium salt, read-out: elimination half-life (T1/2) (converted)), around 2 h; in [2] (75 mg/kg, gavage 75 mg/kg body wt. sodium salt, read-out: T1/2 (converted)), 1.95 h; in series [4] (plasma, human, single oral dose 50 mg (0.7 mg/kg body wt), read-out: T1/2 (converted)), 1.55 h; in series [4] (plasma, human, single oral dose 100 mg (1.3 mg/kg body wt), read-out: T1/2 (converted)) it was 1.5 h; in [4] (plasma, human, single oral dose 250 mg (3.0 mg/kg body wt), read-out: T1/2 (converted)) it was 1.35 h. The half-life in [4] (plasma, human, single oral dose 500 mg (6.0 mg/kg body wt), read-out: T1/2 (converted)) is 1.5 h; in series [4] (plasma, human, single oral dose 750 mg (9.0 mg/kg body wt), read-out: T1/2 (converted)), 2.33 h; in series [4] (plasma, human, single oral dose 1000 mg (12.3 mg/kg body wt), read-out: T1/2 (converted)) it was 2.38 h; in [4] (plasma, human, single oral dose 50 to 1000 mg sodium salt, read-out: mean elimination half-life (T1/2) (converted)), 1.77 h. Further, the concentration at 1 h in series [3] (setting [7]) was determined as 27 µM; in [3] (setting [8]), 57 µM; in [3] (setting [9]) it was 76 µM; in series [3] (setting [10]), 148 µM. The concentration at 4 h in [3] (setting [7]) amounted to 4 µM; in series [3] (setting [8]), 28 µM; in [3] (setting [9]), 12.4 µM; in series [3] (setting [10]) it was 61 µM. For the same compound, the concentration at 6 h in series [3] (setting [7]) came out at 3 µM; in series [3] (setting [8]), 22 µM; in [3] (setting [9]), 11.9 µM; in [3] (setting [10]) it was 45 µM. The Tmax in [4] (plasma, human, all dosage groups, single oral dose 50 to 1000 mg sodium salt, read-out: mean time of maximal concentration (Tmax)) is 1.74 h. Also, the “amount of Aβ40” value in series [5] is recorded as “without proportionate change”. For the same compound, the “amount of Aβ42” value in series [5] is on record as “dose-dependent reduction”. For the same compound, in series [5], the “total Aβ values” is “without proportionate change”. Besides, in the series with human hepatocytes (incubation with human hepatocytes, mass spectrometry), the conversion products identified entry is “hydroxylation and loss of water products and glucuronide conjugates”. Besides, the “conversion to COX-inhibitory compound” value in the series on human hepatocytes (structures of conversion products from human hepatocytes) is “none of which had structures compatible with COX-inhibitory activity”. For the same compound, the “inhibition of cyclooxygenase enzyme COX1” value on COX1 is given as “is not a pharmacologic inhibitor”. For the same compound, the “inhibition of cyclooxygenase enzyme COX2” value on COX2 is recorded as “is not a pharmacologic inhibitor”. In addition, the “concentration of glycated albumin” value in the series on diabetic rodents (persistent hyperglycemia) is “lowers the concentration of glycated albumin”. Besides, the “structural and functional abnormalities characteristic of diabetic kidney disease” value in the series on diabetic rodents is “ameliorates the structural and functional abnormalities”.
For `C[C@@H](C(=O)O)c1ccc(-c2ccccc2)c(F)c1` [R-flurbiprofen], the “fraction converted in vivo to S-flurbiprofen” value in series [6] is given as 22-30%.
